Series [1] in a line: Solubility assessment: saturated solutions in FaSSIF, FeSSIF, SGF and water, concentration by HPLC. Format: physicochemical. The note with it: for solubility compared with Form C in prior art: general statement. The method, then:
Saturated solution of Form 2 and Form A, Form C disclosed in CN102177144B were prepared in FaSSIF (Fasted state simulated intestinal fluids, pH=6.5), FeSSIF (Fed state simulated intestinal fluids, pH=5.0), SGF (Simulated gastric fluids, pH=1.8), and water. Concentrations in the saturation solutions were measured after 1 hour and 24 hours by HPLC.
Form 3 and Form A, Form C were prepared into saturated solution in FaSSIF (Fasted state simulated intestinal fluids, pH=6.5), FeSSIF (Fed state simulated intestinal fluids, pH=5.0) and water. Concentrations in the saturation solutions were measured after 1 hour and 24 hours by HPLC.

Series [2] is described as follows: Stability assessment of crystalline forms on storage (XRPD before and after). The class given is physicochemical. The settings on record: for stability compared with Form C in prior art: general statement; for Solid Form after storage / Crystalline form after storing: XRPD; for physical stability (overall conclusion): storage conditions of the stability assessment. The method, then:
20 mg of sample of Form 2 was stored under 25° C./60% RH, 40° C./75% RH for 6 months, and 80° C. for 3 months. […] 20 mg of sample of Form 3 was stored under 25° C./60% RH and 40° C./75% RH for 6 months.

The conditions of series [3]: treatment of moderate-to-severe chronic plaque psoriasis; cited from earlier work.
For series [4] the following is noted: cited from earlier work.

In brackets after ≈: the same amount, converted by molar mass. Entries after “also recorded” stand apart in the source; their conditions may differ.

Take `CCC/N=C1\S/C(=C\c2ccc(OC[C@H](O)CO)c(Cl)c2)C(=O)N1c1ccccc1C` [Form 1, Ponesimod]: in series [1], the “solubility compared with Form C in prior art” value is reported as “better”. Moreover, the “stability compared with Form C in prior art” value (shortened to “stability compared with Form C”) in series [2] was “better”.

On to `CCC/N=C1\S/C(=C\c2ccc(OC[C@H](O)CO)c(Cl)c2)C(=O)N1c1ccccc1C` [Ponesimod], for which the “result of phase II mid-stage study” value in series [3] is reported as “positive results”.

For the compound `CCC/N=C1\S/C(=C\c2ccc(OC[C@H](O)CO)c(Cl)c2)C(=O)N1c1ccccc1C` [Form 2, Ponesimod], the Solubility in series [1] (FaSSIF pH=6.5, 1 h) stood at 17 µg/mL (≈ 36.9 µM); in series [1] (FaSSIF pH=6.5, 24 h), 33 µg/mL (≈ 71.6 µM); in series [1] (FeSSIF pH=5.0, 1 h), 996 µg/mL (≈ 2160 µM); in series [1] (FeSSIF pH=5.0, 24 h), 813 µg/mL (≈ 1760 µM); in series [1] (SGF pH=1.8, 1 h) it was 97 µg/mL (≈ 210 µM); in series [1] (SGF pH=1.8, 24 h) it was 124 µg/mL (≈ 269 µM). In addition, the “solubility compared with Form C in prior art” value in series [1] is recorded as “better”. In series [1] (in FaSSIF, FeSSIF, and SGF), the “solubility compared with Form A and Form C” value was “higher”. The “Solid Form after storage” value in series [2] (25° C./60% RH, 6 months) is reported as “doesn't change; also recorded: Form 2”; in series [2] (40° C./75% RH, 6 months), “doesn't change; also recorded: Form 2”; in series [2] (80° C., 3 months), “doesn't change; also recorded: Form 2”. Moreover, in series [2], the “stability compared with Form C” value is given as “better”. Also, in series [2], the “physical stability (overall conclusion)” value is listed as “good physical stability”.

As for `CCC/N=C1\S/C(=C\c2ccc(OC[C@H](O)CO)c(Cl)c2)C(=O)N1c1ccccc1C` [Form A, Ponesimod, reference compound], the Solubility in series [1] (FaSSIF pH=6.5, 1 h) was determined as 7 µg/mL (≈ 15.2 µM); in series [1] (FaSSIF pH=6.5, 24 h) it was 4 µg/mL (≈ 8.68 µM); in series [1] (FeSSIF pH=5.0, 1 h), 141 µg/mL (≈ 306 µM); in series [1] (FeSSIF pH=5.0, 24 h), 163 µg/mL (≈ 354 µM); in series [1] (SGF pH=1.8, 1 h), 34 µg/mL (≈ 73.8 µM); in series [1] (SGF pH=1.8, 24 h), 45 µg/mL (≈ 97.6 µM). Besides, in series [4] (compared with Form C), the thermodynamic stability entry is listed as “inferior to Form C”.

In the case of `CCC/N=C1\S/C(=C\c2ccc(OC[C@H](O)CO)c(Cl)c2)C(=O)N1c1ccccc1C` [Form III, Ponesimod], the form transformation result in series [4] (at room temperature) is recorded as “will transform to Form II at room temperature”.

Take `CCC/N=C1\S/C(=C\c2ccc(OC[C@H](O)CO)c(Cl)c2)C(=O)N1c1ccccc1C` [Form 3, Ponesimod]: the Solubility in series [1] (FaSSIF pH=6.5, 1 h) is 84 µg/mL (≈ 182 µM); in series [1] (FaSSIF pH=6.5, 24 h), 15 µg/mL (≈ 32.5 µM); in series [1] (FeSSIF pH=5.0, 1 h) it was 1168 µg/mL (≈ 2530 µM); in series [1] (FeSSIF pH=5.0, 24 h) it was 486 µg/mL (≈ 1050 µM). In addition, the “solubility compared with Form C in prior art” value in series [1] is “better”. Besides, the “solubility compared with Form A and Form C” value in series [1] (in FaSSIF and FeSSIF) is given as “higher”. Also, the “Crystalline form after storing” value in series [2] (25° C./60% RH, 6 months) is listed as “doesn't change; also recorded: Form 3”; in series [2] (40° C./75% RH, 6 months), “doesn't change; also recorded: Form 3”. For the same compound, the “stability compared with Form C” value in series [2] was “better”. In series [2], the “physical stability (overall conclusion)” value is “good physical stability”.

In the case of `CCC/N=C1\S/C(=C\c2ccc(OC[C@H](O)CO)c(Cl)c2)C(=O)N1c1ccccc1C` [Form C, Ponesimod, reference compound], the Solubility stood at 10 µg/mL (≈ 21.7 µM) in series [1] (FaSSIF pH=6.5, 1 h); 133 µg/mL (≈ 289 µM) in series [1] (FeSSIF pH=5.0, 1 h); 149 µg/mL (≈ 323 µM) in series [1] (FeSSIF pH=5.0, 24 h); 29 µg/mL (≈ 62.9 µM) in series [1] (SGF pH=1.8, 1 h); 24 µg/mL (≈ 52.1 µM) in series [1] (SGF pH=1.8, 24 h). Moreover, the solubility at 1 h in series [1] (water, thermodynamic from solid, H2O, 1 h, ND = below the LOD of instrument) came to 3 µg/mL (≈ 6.51 µM). In addition, the solubility at 24 h in series [1] (water, thermodynamic from solid, H2O, 24 h, ND = below the LOD of instrument) was 1 µg/mL (≈ 2.17 µM). Moreover, the “solubility (in words)” value in series [4] is given as “unsatisfactory”.

What is called Solubility is how much of the substance goes into solution per volume. A low value points to little dissolved substance. In general, solubility refers to how much of the substance goes into solution per volume. The low end stands for a poorly soluble substance, the high end for a readily soluble substance.
